Results from US8466289B2, “Heterocyclic sulfonamide derivatives” (Novartis AG, priority 2009, dated 2013).

Key:
[1] = system: BRAF-MEK-ERK cascade (activated BRAF (V599E), unactive MEK1, unactive MAP Kinase 2/ERK2); test: BRAF-MEK-ERK enzymatic cascade assay (TR-FRET); format: biochemical, human; conditions: compounds screened at 10 μM, 45 minutes pre-incubation with enzymes, 100 μM ATP
Excerpt: A BRAF-MEK-ERK cascade assay is used to evaluate the effects of the compounds as inhibitors of the MAP kinase pathway. An enzymatic cascade assay is set up using recombinant human activated BRAF (V599E) kinase (Cat No. 14-557), human full length unactive MEK1 kinase (Cat No. 14-706) and human full length unactive MAP Kinase 2/ERK2 (Cat No. 14-536) enzymes procured from Upstate. TR-FRET (Time resolved fluorescence resonance energy transfer) detection technology is used for the read out. The assay buffer solution contains 50 mM Tris pH 7.5, 10 mM MgCl2, 1 mM DTT, 0.01% Tween 20, 0.1 nM activated BRAF, 2 nM unactive MEK1, 10 nM unactive ERK2, 100 μM ATP and 500 nM long chain biotin-peptide substrate (LCB-FFKNIVTPRTPPP) in a 384 well format. The kinase reaction is stopped after 90 minutes with 10 mM EDTA and Lance detection mix (2 nM Eu-labeled phospho-serine/threonine antibody (Cat. No. AD0176-Perkin Elmer), 20 nM SA-APC (Cat No. CR130-100-Perkin Elmer) is added. The TR-FRET signal (Excitation at 340 nm, Emission at 615 nm and 665 nm) is read with 50 μs delay time on a Victor3 V fluorimeter. The data is calculated using the ratio of readings at 665 nm to 615 nm. The final concentration of DMSO is 2.5% in the assay. Compounds are screened at 10 μM concentration with pre-incubation of the enzymes in the presence of test compound for 45 minutes.
Each individual IC50 is determined using a 10 point dose response curve generated by GraphPad Prism software Version 4 (San Diego, Calif., USA) using non linear regression curve fit for sigmoidal dose response (variable slope).
These assays described above are fully detailed in Han, Shulin, et. al., Bioorganic & Medicinal Chemistry Letters (2005) 15, 5467-5473, and in Yeh, et. al., Clin Cancer Res (2007) 13 (5), 1576-1583.
(§1) The compounds of the above Examples were evaluated as inhibitors of the MAP kinase pathway in a BRAF-MEK-ERK enzymatic cascade assay and in the cell viability assay described above.

A375 cells = test: cell viability assay in A375 cells using XTT; format: cell-based; conditions: Homo sapiens, A-375, 72 h, XTT read three days after compound addition
Procedure: The cell viability assay in A375 cells is set up in a 96-well plate format using XTT.
XTT is a yellow tetrazolium salt that is cleaved to an orange formazan dye by the mitochondria of metabolically active cells. The procedure allows for rapid determination in a microtitre plate, to give reproducible and sensitive results.
A375 cells are grown in DMEM media containing 10% FBS and 1 mM sodium pyruvate. Cells are trypsinized and seeded at 1000 cells/well. After allowing the cells to adhere overnight, compound is added to the wells at the following final concentrations: 10, 3, 1, 0.3, 0.1, 0.03, 0.01, 0.001, and 0.0001 μM. The assay is set up in triplicates for each concentration. DMSO concentrations are kept at 0.5%/well. Three days after compound addition, the XTT assay is performed. Wells are washed once with PBS. 100 μL of DMEM media without phenol red or FBS is added to each well. A working solution of XTT containing 1 mg/ml XTT and 100 μL of PMS (stock concentration 0.383 mg/ml) per 5 ml is prepared. 50 μL of the working solution of XTT is added to each well. Absorbance of the plate is read at 465 nm using a Spectramax 190 (Molecular Devices). The absorbance from wells with media and XTT alone, but without cells is considered the blank and subtracted from readings from all wells.
Percentage viability is calculated considering the blank subtracted value from wells treated with DMSO alone as 100% viable. GI50 values are calculated using Graphpad Prism, using non-linear regression curve fit for sigmoidal dose response (variable slope).
The cell viability assay is further described in Scudiero, et. al., Cancer Research (1988) 48, 4827-4833; Weislow, et. al., J. Natl. Cancer Institute, (1989) 81, 577-586; and Roehm, et. al., J. Immunol. Methods [1991]142:257-265.
as §1

Row | SMILES | % inhibition [1] [%] | GI50 (A375 cells) [nM]
1 | Cc1c(Nc2ccc(I)cc2F)c(NS(=O)(=O)C2CC2CO)c2n(c1=O)CCS2 (stereo not drawn) [Example 21A, 2-Hydroxymethyl-cyclopropanesulfonic acid [7-(2-fluoro-4-iodo-phenylamino)-6-methyl-5-oxo-2,3-dihydro-5H-thiazolo[3,2-a]pyridin-8-yl]-amide] | 100 | 158
2 | Cc1c(Nc2ccc(I)cc2F)c(NS(=O)(=O)C2(CO)CC2)c2n(c1=O)CCS2 [Example 22A, 1-Hydroxymethyl-cyclopropanesulfonic acid [7-(2-fluoro-4-iodo-phenylamino)-6-methyl-5-oxo-2,3-dihydro-5H-thiazolo[3,2-a]pyridin-8-yl]-amide] | 97 | 61
3 | Cc1c(Nc2ccc(I)cc2F)c(NS(=O)(=O)N(C)C)c2n(c1=O)CCS2 [Example 23A, N-[7-(2-Fluoro-4-iodo-phenylamino)-6-methyl-5-oxo-2,3-dihydro-5H-thiazolo[3,2-a]pyridin-8-yl]-dimethylaminosulfonamide] | 100 | 107
4 | Cc1c(Nc2ccc(I)cc2F)c(NS(=O)(=O)C2CCCC2)c2n(c1=O)CCS2 [Example 24A, Cyclopentanesulfonic acid [7-(2-fluoro-4-iodo-phenylamino)-6-methyl-5-oxo-2,3-dihydro-5H-thiazolo[3,2-a]pyridin-8-yl]-amide] | 100 | 192
5 | Cc1c(Nc2ccc(I)cc2F)c(NS(=O)(=O)C2CC(O)C2)c2n(c1=O)CCS2 (stereo not drawn) [Example 25A, 3-Hydroxy-cyclobutanesulfonic acid [7-(2-fluoro-4-iodo-phenylamino)-6-methyl-5-oxo-2,3-dihydro-5H-thiazolo[3,2-a]pyridin-8-yl]-amide] | 100 | 922
6 | Cc1c(Nc2ccc(I)cc2F)c(NS(=O)(=O)C2CCC2)c2n(c1=O)CCS2 [Example 26A, Cyclobutanesulfonic acid [7-(2-fluoro-4-iodo-phenylamino)-6-methyl-5-oxo-2,3-dihydro-5H-thiazolo[3,2-a]pyridin-8-yl]-amide] | 100 | 156
